Results on 16 molecules are retold here after patent US9790228B2, “Heterocyclic kinase inhibitors” (Intellikine LLC, priority 2008, dated 2017).

SMILES strings stand for the structures. pEC50, pIC50: −log10 of the molar value.

What is called pIC50 is −log10 of the IC50, conventionally taken in molar units. A word on the pEC50: it is the negative decadic logarithm of the EC50, by convention in mol/L. A higher pEC50 goes with a small EC50.

Sequence of p110β/p85α (P42338 whole entry, looked up): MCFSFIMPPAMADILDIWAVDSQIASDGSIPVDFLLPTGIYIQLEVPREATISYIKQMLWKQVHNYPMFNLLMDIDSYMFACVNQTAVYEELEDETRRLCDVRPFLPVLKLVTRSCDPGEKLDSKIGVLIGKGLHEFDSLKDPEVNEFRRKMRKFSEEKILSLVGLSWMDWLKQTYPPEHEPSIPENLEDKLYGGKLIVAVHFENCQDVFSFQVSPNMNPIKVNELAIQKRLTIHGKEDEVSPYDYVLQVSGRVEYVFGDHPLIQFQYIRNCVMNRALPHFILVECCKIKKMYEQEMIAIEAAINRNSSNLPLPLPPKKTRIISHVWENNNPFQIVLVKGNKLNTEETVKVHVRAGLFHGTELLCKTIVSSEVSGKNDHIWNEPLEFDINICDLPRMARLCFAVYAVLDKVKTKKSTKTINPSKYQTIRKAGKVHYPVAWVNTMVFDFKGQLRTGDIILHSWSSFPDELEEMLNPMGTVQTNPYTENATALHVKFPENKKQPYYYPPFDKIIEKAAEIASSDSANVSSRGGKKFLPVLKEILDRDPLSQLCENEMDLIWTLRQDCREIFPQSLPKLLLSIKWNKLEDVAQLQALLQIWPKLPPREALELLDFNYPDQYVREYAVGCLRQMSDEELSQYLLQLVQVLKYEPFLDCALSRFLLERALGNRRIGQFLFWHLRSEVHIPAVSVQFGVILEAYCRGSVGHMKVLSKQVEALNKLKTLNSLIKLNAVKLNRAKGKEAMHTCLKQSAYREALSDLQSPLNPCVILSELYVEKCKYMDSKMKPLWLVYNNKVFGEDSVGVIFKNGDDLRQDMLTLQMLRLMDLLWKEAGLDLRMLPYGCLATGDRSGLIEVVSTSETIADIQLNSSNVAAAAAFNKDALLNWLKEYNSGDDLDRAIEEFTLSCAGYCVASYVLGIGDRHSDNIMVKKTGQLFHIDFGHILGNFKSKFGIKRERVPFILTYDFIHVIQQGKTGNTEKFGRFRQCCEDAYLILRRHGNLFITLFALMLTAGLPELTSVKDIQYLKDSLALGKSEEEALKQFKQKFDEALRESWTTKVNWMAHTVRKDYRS

The target in one assay is p110γ (Homo sapiens (Human), UniProt P48736). The assay can be described thus: PI3K γ inhibition assay (TLC lipid kinase or HTRF). In kind it is biochemical.
Sequence of p110γ (P48736 whole entry): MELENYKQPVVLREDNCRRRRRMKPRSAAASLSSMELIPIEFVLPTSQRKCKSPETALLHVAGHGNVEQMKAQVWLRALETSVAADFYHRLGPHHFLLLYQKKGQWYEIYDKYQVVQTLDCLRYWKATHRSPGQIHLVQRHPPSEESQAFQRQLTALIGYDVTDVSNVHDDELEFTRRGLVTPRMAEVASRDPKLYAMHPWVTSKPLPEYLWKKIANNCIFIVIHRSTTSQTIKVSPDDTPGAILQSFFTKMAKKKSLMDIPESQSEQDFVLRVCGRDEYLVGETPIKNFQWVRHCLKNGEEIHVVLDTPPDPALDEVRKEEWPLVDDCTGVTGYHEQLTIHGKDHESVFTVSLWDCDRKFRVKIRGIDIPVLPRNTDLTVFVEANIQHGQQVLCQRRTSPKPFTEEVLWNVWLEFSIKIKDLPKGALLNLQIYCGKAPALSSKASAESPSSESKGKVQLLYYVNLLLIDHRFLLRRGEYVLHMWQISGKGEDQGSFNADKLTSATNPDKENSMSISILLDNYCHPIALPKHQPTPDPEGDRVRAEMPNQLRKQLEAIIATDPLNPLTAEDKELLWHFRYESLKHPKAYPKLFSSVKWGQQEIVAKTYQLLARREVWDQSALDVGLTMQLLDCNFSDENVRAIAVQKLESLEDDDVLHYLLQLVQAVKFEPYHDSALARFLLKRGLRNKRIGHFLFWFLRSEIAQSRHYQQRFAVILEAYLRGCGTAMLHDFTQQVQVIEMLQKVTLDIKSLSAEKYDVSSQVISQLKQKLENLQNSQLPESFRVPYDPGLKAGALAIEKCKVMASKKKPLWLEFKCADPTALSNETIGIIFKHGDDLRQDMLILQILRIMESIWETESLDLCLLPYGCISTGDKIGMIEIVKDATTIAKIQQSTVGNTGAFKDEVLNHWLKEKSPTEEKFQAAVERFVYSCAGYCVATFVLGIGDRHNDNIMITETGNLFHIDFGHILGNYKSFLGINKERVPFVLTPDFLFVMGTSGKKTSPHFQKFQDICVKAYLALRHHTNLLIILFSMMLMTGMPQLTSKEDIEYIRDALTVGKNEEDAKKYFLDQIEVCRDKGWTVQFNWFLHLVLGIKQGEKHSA
Conditions: not given
In short, it runs like this:
(§1)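 IC50 from TLC lipid kinase assay (25 mM HEPES pH 7.4, 10 mM MgCl2, 100 μg/ml phosphatidylinositol, 10 or 100 μM γ-32P-ATP, 5 min RT, phosphorimager) at 10–12 two-fold dilutions, or HTRF (10 μM PIP2, 10 μM ATP, 1 h RT) measuring PIP3 by TR-FRET; 2% DMSO final.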
In general terms: Time-resolved FRET reads energy transfer from a long-lived donor to a nearby acceptor.
`Cc1ccccc1-c1nc2ccccc2cc1Cn1nc(-c2ccc3nc(N)[nH]c3c2)c2c(N)ncnc21` [Compound 182]: the pIC50 is > 7.00.

With `C[C@@H](O)C#Cc1nn(Cc2cc3ccccc3nc2-c2ccccc2C(F)(F)F)c2ncnc(N)c12` [Compound 49], the pIC50 was < 6.00.

Take `CC(c1cc2ccccc2nc1-c1ccccc1)n1cnc2c(N)ncnc21` (stereo not drawn) [Compound 60]: the pIC50 was < 6.00.

For the molecule `CC(c1cc2ccccc2nc1N1CCCC1)n1nc(-c2cccc(O)c2)c2c(N)ncnc21` (stereo not drawn) [Compound 32], the pIC50 was 6.00 to 7.00.

As to `CC(=O)Nc1nc2ccc(-c3nn(Cc4cc5ccccc5nc4N(C)C(C)C)c4ncnc(N)c34)cc2s1` [Compound 151], the pIC50 is > 7.00.

Turning to `Nc1ncnc2c1c(-c1ccc3cc[nH]c3c1)nn2Cc1cc2ccccc2nc1N1CCCC1` [Compound 147], the negative logarithm of the IC50 (pIC50) was > 7.00.

`CC(=O)Nc1nc2ccc(-c3nn(Cc4cc5ccccc5nc4N4CCOCC4)c4ncnc(N)c34)cc2s1` [Compound 128]: the pIC50 is > 7.00.

Turning to `Nc1nc2ccc(-c3nn(Cc4cc5ccccc5nc4N4CCCC4)c4ncnc(N)c34)cc2s1` [Compound 196], the pIC50 was > 7.00.

On to `Nc1ncnc2c1c(-c1cc(O)cc(F)c1)nn2Cc1cc2ccccc2nc1-c1ccccc1C(F)(F)F` [Compound 45], for which the pIC50 is 6.00 to 7.00.

The target of the next assay is p110δ/p85α (Homo sapiens (Human), UniProt O00329). The assay is described as follows: PI3K δ inhibition assay (TLC lipid kinase or HTRF). The class given is biochemical.
Sequence of p110δ/p85α (O00329 whole entry): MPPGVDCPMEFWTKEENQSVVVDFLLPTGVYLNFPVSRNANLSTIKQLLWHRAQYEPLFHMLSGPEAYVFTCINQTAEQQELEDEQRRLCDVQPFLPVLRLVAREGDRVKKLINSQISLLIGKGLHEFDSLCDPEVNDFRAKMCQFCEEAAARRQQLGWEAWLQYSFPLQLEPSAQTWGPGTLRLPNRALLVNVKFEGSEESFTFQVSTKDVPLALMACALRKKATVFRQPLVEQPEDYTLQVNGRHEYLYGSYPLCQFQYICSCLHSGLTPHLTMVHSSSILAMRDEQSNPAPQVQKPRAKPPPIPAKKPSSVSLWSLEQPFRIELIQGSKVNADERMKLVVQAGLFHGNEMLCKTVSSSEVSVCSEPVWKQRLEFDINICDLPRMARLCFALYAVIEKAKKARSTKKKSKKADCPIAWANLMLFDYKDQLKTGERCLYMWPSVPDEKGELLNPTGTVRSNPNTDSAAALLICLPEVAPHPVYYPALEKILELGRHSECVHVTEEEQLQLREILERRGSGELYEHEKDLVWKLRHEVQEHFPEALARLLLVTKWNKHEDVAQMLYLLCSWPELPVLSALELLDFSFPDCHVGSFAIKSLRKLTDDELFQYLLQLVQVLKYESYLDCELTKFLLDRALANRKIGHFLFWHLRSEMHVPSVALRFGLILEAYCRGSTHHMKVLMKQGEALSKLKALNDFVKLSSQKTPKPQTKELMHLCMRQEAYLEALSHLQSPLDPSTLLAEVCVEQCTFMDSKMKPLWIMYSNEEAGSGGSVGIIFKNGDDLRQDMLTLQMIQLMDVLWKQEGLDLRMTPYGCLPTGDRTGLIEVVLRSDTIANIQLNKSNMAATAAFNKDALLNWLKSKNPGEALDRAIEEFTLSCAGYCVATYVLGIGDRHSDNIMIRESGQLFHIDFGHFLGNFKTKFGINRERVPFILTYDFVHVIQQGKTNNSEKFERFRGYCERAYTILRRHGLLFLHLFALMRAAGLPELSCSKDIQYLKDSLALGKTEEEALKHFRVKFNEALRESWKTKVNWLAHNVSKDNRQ
Sequence of p110δ/p85α (P27986 whole entry partner): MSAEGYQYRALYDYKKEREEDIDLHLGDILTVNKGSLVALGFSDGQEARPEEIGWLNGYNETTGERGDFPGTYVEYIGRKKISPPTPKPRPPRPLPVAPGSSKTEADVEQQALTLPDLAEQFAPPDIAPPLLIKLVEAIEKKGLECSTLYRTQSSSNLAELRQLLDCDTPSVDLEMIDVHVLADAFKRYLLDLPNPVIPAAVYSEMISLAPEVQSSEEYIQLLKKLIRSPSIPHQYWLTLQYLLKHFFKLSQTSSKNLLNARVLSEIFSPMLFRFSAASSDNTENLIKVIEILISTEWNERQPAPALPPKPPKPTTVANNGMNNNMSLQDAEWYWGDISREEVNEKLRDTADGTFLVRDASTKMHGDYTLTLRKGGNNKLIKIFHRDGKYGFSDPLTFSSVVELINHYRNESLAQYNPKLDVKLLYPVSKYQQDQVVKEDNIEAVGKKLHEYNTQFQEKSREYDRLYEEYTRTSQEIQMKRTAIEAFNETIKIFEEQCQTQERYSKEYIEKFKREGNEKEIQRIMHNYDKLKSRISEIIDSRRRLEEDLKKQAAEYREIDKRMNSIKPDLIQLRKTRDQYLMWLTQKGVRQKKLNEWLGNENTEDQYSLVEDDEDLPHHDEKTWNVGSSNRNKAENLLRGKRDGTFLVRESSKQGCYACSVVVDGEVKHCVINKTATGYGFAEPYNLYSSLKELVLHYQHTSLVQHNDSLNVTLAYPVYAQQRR
Conditions: not given
In short, it runs like this: as §1
In the case of `Cc1cccc2cc(Cn3nc(-c4cccc(O)c4)c4c(N)ncnc43)c(N3CCCC3)nc12` [Compound 10], the pIC50 was > 7.00.

As to `Cc1cccc2cc(Cn3nc(-c4cc(O)cc(F)c4)c4c(N)ncnc43)c(N3CCCC3)nc12` [Compound 9], the pIC50 was > 7.00.

Turning to `Cc1nccn1-c1cc2ccccc2cc1Cn1nc(-c2ccc3nc(N)sc3c2)c2c(N)ncnc21` [Compound 175], the pIC50 is > 7.00.

With `CC1CCCN1c1nc2ccccc2cc1Cn1nc(-c2ccc3nc(N)sc3c2)c2c(N)ncnc21` (stereo not drawn) [Compound 187], the pIC50 was > 7.00.

With `Cc1cn(-c2nc3ccccc3cc2Cn2nc(-c3ccc4nc(N)sc4c3)c3c(N)ncnc32)cn1` [Compound 176], the pIC50 is > 7.00.

`Cc1ccccc1-c1nc2ccccc2cc1Cn1nc(-c2ccc3nc(N)[nH]c3c2)c2c(N)ncnc21` [Compound 182]: the pIC50 was > 7.00.

In turn, `C[C@@H](O)C#Cc1nn(Cc2cc3ccccc3nc2-c2ccccc2C(F)(F)F)c2ncnc(N)c12` [Compound 49] showed a pIC50 of 6.00 to 7.00.

Regarding `CC(c1cc2ccccc2nc1-c1ccccc1)n1cnc2c(N)ncnc21` (stereo not drawn) [Compound 60], the pIC50 was < 6.00.

Regarding `CC(c1cc2ccccc2nc1N1CCCC1)n1nc(-c2cccc(O)c2)c2c(N)ncnc21` (stereo not drawn) [Compound 32], the pIC50 is > 7.00.

`CC(=O)Nc1nc2ccc(-c3nn(Cc4cc5ccccc5nc4N(C)C(C)C)c4ncnc(N)c34)cc2s1` [Compound 151]: the pIC50 was > 7.00.

Regarding `Nc1ncnc2c1c(-c1ccc3cc[nH]c3c1)nn2Cc1cc2ccccc2nc1N1CCCC1` [Compound 147], the pIC50 is > 7.00.

`CC(=O)Nc1nc2ccc(-c3nn(Cc4cc5ccccc5nc4N4CCOCC4)c4ncnc(N)c34)cc2s1` [Compound 128]: the pIC50 was > 7.00.

On to `CC(=O)Nc1nc2ccc(-c3nn(Cc4cc5ccccc5nc4N4CCCC4C)c4ncnc(N)c34)cc2s1` (stereo not drawn) [Compound 186], for which the negative logarithm of the IC50 (pIC50) is > 7.00.

As for `Nc1nc2ccc(-c3nn(Cc4cc5ccccc5nc4N4CCCC4)c4ncnc(N)c34)cc2s1` [Compound 196], the pIC50 was > 7.00.

Take `Nc1ncnc2c1c(-c1cc(O)cc(F)c1)nn2Cc1cc2ccccc2nc1CN1CCCC1` [Compound 174]: the pIC50 was > 7.00.

Regarding `Nc1ncnc2c1c(-c1cc(O)cc(F)c1)nn2Cc1cc2ccccc2nc1-c1ccccc1C(F)(F)F` [Compound 45], the pIC50 is > 7.00.

A further assay concerns the target p110β/p85α (Homo sapiens, UniProt P42338). The assay is described as follows: PI3K β inhibition assay (TLC lipid kinase or HTRF). The class given is biochemical. The settings on record: read-out: PI3K β IC50. In short, it runs like this:
as §1
As to `Cc1cccc2cc(Cn3nc(-c4cccc(O)c4)c4c(N)ncnc43)c(N3CCCC3)nc12` [Compound 10], the pIC50 was < 6.00.

As for `Cc1cccc2cc(Cn3nc(-c4cc(O)cc(F)c4)c4c(N)ncnc43)c(N3CCCC3)nc12` [Compound 9], the pIC50 was < 6.00.

With `Cc1nccn1-c1cc2ccccc2cc1Cn1nc(-c2ccc3nc(N)sc3c2)c2c(N)ncnc21` [Compound 175], the pIC50 is < 6.00.

Consider `CC1CCCN1c1nc2ccccc2cc1Cn1nc(-c2ccc3nc(N)sc3c2)c2c(N)ncnc21` (stereo not drawn) [Compound 187], for which the pIC50 is 6.00 to 7.00.

`Cc1cn(-c2nc3ccccc3cc2Cn2nc(-c3ccc4nc(N)sc4c3)c3c(N)ncnc32)cn1` [Compound 176]: the pIC50 was < 6.00.

`CC(=O)Nc1nc2ccc(-c3nn(Cc4cc5ccccc5nc4N(C)C(C)C)c4ncnc(N)c34)cc2s1` [Compound 151]: the pIC50 is 6.00 to 7.00.

For the molecule `CC(=O)Nc1nc2ccc(-c3nn(Cc4cc5ccccc5nc4N4CCCC4C)c4ncnc(N)c34)cc2s1` (stereo not drawn) [Compound 186], the pIC50 is < 6.00.

For the molecule `Nc1ncnc2c1c(-c1cc(O)cc(F)c1)nn2Cc1cc2ccccc2nc1CN1CCCC1` [Compound 174], the pIC50 is > 7.00.

The next assay relates to Balb/c splenic B cells. The assay is described as follows: B cell activation and proliferation assay (Alamar Blue).
Conditions: not given
In kind it is cell-based, mouse. How it is done: The ability of one or more subject compounds to inhibit B cell activation and proliferation is determined according to standard procedures known in the art. For example, an in vitro cellular proliferation assay is established that measures the metabolic activity of live cells. The assay is performed in a 96 well microtiter plate using Alamar Blue reduction. Balb/c splenic B cells are purified over a Ficoll-Paque™ PLUS gradient followed by magnetic cell separation using a MACS B cell Isolation Kit (Miletenyi). Cells are plated in 90 ul at 50,000 cells/well in B Cell Media (RPMI+10% FBS+Penn/Strep+50 uM bME+5 mM HEPES). A compound disclosed herein is diluted in B Cell Media and added in a 10 ul volume. Plates are incubated for 30 min at 37 C and 5% CO2 (0.2% DMSO final concentration). A 50 ul B cell stimulation cocktail is then added containing either 10 ug/ml LPS or 5 ug/ml F(ab′)2 Donkey anti-mouse IgM plus 2 ng/ml recombinant mouse IL4 in B Cell Media. Plates are incubated for 72 hours at 37° C. and 5% CO2. A volume of 15 uL of Alamar Blue reagent is added to each well and plates are incubated for 5 hours at 37 C and 5% CO2. Alamar Blue fluoresce is read at 560Ex/590Em, and IC50 or EC50 values are calculated using GraphPad Prism 5.
A general note: Resazurin is reduced to fluorescent resorufin, in cell work by metabolically active cells.
Consider `Nc1nc2ccc(-c3nn(Cc4cc5ccccc5nc4N4CCCC4)c4ncnc(N)c34)cc2s1` [Compound 196], for which the negative-log EC50 (pEC50) is 6.00 to 7.00.

The assay is the same for the next values; noted with them: Mus musculus, B-cell.
Molecule `Cc1cccc2cc(Cn3nc(-c4cccc(O)c4)c4c(N)ncnc43)c(N3CCCC3)nc12` [Compound 10] showed a negative-log EC50 (pEC50) of 6.00 to 7.00.

For `Cc1cccc2cc(Cn3nc(-c4cc(O)cc(F)c4)c4c(N)ncnc43)c(N3CCCC3)nc12` [Compound 9], the pEC50 is > 7.00.

As for `Cc1nccn1-c1cc2ccccc2cc1Cn1nc(-c2ccc3nc(N)sc3c2)c2c(N)ncnc21` [Compound 175], the pEC50 is > 7.00.

For `CC1CCCN1c1nc2ccccc2cc1Cn1nc(-c2ccc3nc(N)sc3c2)c2c(N)ncnc21` (stereo not drawn) [Compound 187], the pEC50 is > 7.00.

In the case of `Cc1cn(-c2nc3ccccc3cc2Cn2nc(-c3ccc4nc(N)sc4c3)c3c(N)ncnc32)cn1` [Compound 176], the pEC50 was > 7.00.

As for `Cc1ccccc1-c1nc2ccccc2cc1Cn1nc(-c2ccc3nc(N)[nH]c3c2)c2c(N)ncnc21` [Compound 182], the pEC50 is 6.00 to 7.00.

The molecule `C[C@@H](O)C#Cc1nn(Cc2cc3ccccc3nc2-c2ccccc2C(F)(F)F)c2ncnc(N)c12` [Compound 49] had a pEC50 of 6.00 to 7.00.

Consider `CC(c1cc2ccccc2nc1-c1ccccc1)n1cnc2c(N)ncnc21` (stereo not drawn) [Compound 60], for which the pEC50 was < 6.00.

Turning to `CC(c1cc2ccccc2nc1N1CCCC1)n1nc(-c2cccc(O)c2)c2c(N)ncnc21` (stereo not drawn) [Compound 32], the pEC50 is > 7.00.

Take `CC(=O)Nc1nc2ccc(-c3nn(Cc4cc5ccccc5nc4N(C)C(C)C)c4ncnc(N)c34)cc2s1` [Compound 151]: the pEC50 was > 7.00.

As for `Nc1ncnc2c1c(-c1ccc3cc[nH]c3c1)nn2Cc1cc2ccccc2nc1N1CCCC1` [Compound 147], the pEC50 is 6.00 to 7.00.

In the case of `CC(=O)Nc1nc2ccc(-c3nn(Cc4cc5ccccc5nc4N4CCOCC4)c4ncnc(N)c34)cc2s1` [Compound 128], the pEC50 is > 7.00.

Consider `CC(=O)Nc1nc2ccc(-c3nn(Cc4cc5ccccc5nc4N4CCCC4C)c4ncnc(N)c34)cc2s1` (stereo not drawn) [Compound 186], for which the pEC50 was > 7.00.

Consider `Nc1ncnc2c1c(-c1cc(O)cc(F)c1)nn2Cc1cc2ccccc2nc1CN1CCCC1` [Compound 174], for which the pEC50 was > 7.00.

With `Nc1ncnc2c1c(-c1cc(O)cc(F)c1)nn2Cc1cc2ccccc2nc1-c1ccccc1C(F)(F)F` [Compound 45], the pEC50 was > 7.00.

The target in a further assay is p110α/p85α (Homo sapiens (Human), UniProt P42336). The assay is described as follows: PI3K α inhibition assay (TLC lipid kinase or HTRF). In kind it is biochemical.
Sequence of p110α/p85α (P42336 whole entry): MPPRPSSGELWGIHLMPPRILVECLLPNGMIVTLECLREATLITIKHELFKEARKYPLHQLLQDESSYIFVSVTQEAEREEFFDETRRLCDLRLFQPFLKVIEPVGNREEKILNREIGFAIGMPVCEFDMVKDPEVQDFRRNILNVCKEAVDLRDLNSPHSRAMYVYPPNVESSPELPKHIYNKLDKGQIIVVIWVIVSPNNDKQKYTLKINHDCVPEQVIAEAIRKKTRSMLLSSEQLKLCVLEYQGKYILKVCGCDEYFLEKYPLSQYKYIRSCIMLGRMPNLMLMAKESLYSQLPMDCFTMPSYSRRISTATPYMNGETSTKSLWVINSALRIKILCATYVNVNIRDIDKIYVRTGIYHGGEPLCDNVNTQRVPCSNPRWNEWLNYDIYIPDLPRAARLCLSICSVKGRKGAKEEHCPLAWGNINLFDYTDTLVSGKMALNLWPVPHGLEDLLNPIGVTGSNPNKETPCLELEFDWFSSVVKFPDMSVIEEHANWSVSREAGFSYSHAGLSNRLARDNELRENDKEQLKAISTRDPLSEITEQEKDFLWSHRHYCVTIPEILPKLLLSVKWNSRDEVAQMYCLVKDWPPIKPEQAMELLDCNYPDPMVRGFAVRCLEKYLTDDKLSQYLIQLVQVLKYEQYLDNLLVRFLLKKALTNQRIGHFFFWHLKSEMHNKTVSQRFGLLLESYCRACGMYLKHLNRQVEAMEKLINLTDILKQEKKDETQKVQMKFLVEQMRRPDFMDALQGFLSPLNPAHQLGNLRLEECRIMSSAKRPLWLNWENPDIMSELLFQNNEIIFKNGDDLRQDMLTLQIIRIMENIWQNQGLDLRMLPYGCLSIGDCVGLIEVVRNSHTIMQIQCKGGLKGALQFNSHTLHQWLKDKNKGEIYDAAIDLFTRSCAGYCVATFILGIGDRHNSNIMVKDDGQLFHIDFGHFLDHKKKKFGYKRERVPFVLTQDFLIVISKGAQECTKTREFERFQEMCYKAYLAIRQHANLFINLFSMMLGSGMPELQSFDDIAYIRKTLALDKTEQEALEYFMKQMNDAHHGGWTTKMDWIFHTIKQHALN
Sequence of p110α/p85α (P27986 whole entry partner): as the sequence (P27986 whole entry partner) above
Conditions: not given
The method in brief: as §1
Regarding `Cc1cccc2cc(Cn3nc(-c4cccc(O)c4)c4c(N)ncnc43)c(N3CCCC3)nc12` [Compound 10], the negative logarithm of the IC50 (pIC50) is < 6.00.

With `Cc1cccc2cc(Cn3nc(-c4cc(O)cc(F)c4)c4c(N)ncnc43)c(N3CCCC3)nc12` [Compound 9], the pIC50 was < 6.00.

As for `Cc1nccn1-c1cc2ccccc2cc1Cn1nc(-c2ccc3nc(N)sc3c2)c2c(N)ncnc21` [Compound 175], the pIC50 is 6.00 to 7.00.

As for `CC1CCCN1c1nc2ccccc2cc1Cn1nc(-c2ccc3nc(N)sc3c2)c2c(N)ncnc21` (stereo not drawn) [Compound 187], the pIC50 was > 7.00.

Molecule `Cc1cn(-c2nc3ccccc3cc2Cn2nc(-c3ccc4nc(N)sc4c3)c3c(N)ncnc32)cn1` [Compound 176] had a pIC50 of 6.00 to 7.00.

For `Cc1ccccc1-c1nc2ccccc2cc1Cn1nc(-c2ccc3nc(N)[nH]c3c2)c2c(N)ncnc21` [Compound 182], the pIC50 was < 6.00.

`Nc1ncnc2c1c(-c1ccc3cc[nH]c3c1)nn2Cc1cc2ccccc2nc1N1CCCC1` [Compound 147] showed a pIC50 of 6.00 to 7.00.

On to `CC(=O)Nc1nc2ccc(-c3nn(Cc4cc5ccccc5nc4N4CCOCC4)c4ncnc(N)c34)cc2s1` [Compound 128], for which the pIC50 is > 7.00.

As to `CC(=O)Nc1nc2ccc(-c3nn(Cc4cc5ccccc5nc4N4CCCC4C)c4ncnc(N)c34)cc2s1` (stereo not drawn) [Compound 186], the pIC50 was 6.00 to 7.00.

For the molecule `Nc1nc2ccc(-c3nn(Cc4cc5ccccc5nc4N4CCCC4)c4ncnc(N)c34)cc2s1` [Compound 196], the negative logarithm of the IC50 (pIC50) is 6.00 to 7.00.

For `Nc1ncnc2c1c(-c1cc(O)cc(F)c1)nn2Cc1cc2ccccc2nc1CN1CCCC1` [Compound 174], the pIC50 is < 6.00.
